Assays:
DENV-2 [1] = assay: Titer reduction assay in Huh-7 cells, plaque assay on Vero cells; assay type: cell-based, DENV-2 New Guinea C strain; conditions: Dengue virus, DENV2, m.o.i. 0.2, 72 h
Experimental: (§1) Huh-7 cells were seeded in 12-well plates at a density of 4×10^5 cells per well in 1 mL culture medium. The next day, cells were washed and inoculated with DENV at a multiplicity of infection (m.o.i.) of 0.2 in 500μl infection medium (MEM containing 2% FBS and 10 mM HEPES). The inoculum was removed after 1h, cells were washed with PBS and then incubated in 1 mL MEM, 2% FBS, 1% pen/strep plus compound for 72 h. Viral supernatants were clarified by centrifugation for 5 min at 1500×g and aliquoted and stored at -80°C. Viral titers were determined using a plaque assay on Vero cells. Briefly, confluent Vero cell monolayers in 24-well plates were incubated at 37°C for 1 h with duplicate 300 μl samples of 10-fold serial dilutions of viral supernatants. The cells were then washed to remove unbound viral particles and overlaid with 500ul MEM containing 1.3% methylcellulose, 5% FBS and 10mM HEPES. After 5 days of incubation at 37°C and 5% CO2, cells were washed with PBS, fixed, and stained using 1% Giemsa. Infectious virus titer (pfu/mL) was determined using the following formula: number of plaques × dilution factor × (1/inoculation volume). The viral titer was presented as the mean of duplicate samples from a dilution yielding approximately 20–50 plaques per well.

DENV-2 [2] = assay: Sequence analysis of prM/E region clones from passaged virus (mutation frequency); assay type: cell-based, DENV-2 New Guinea C strain
Experimental: For qPCR determination of viral genome copy number, viral RNA was isolated from 140 μL of drug-treated or DMSO-treated infected culture supernatant using QIAamp Viral RNA mini kit (Qiagen), following manufacturer’s protocol. Viral RNA was quantified using the TaqMan RNA-to-CT 1-Step qPCR Kit (Applied Biosystems). Primers used for qPCR were 5’-[…]-3’ (forward) and 5’-[…]-3’ (reverse) amplifying a region numbering 8928–8988 in the genome (numbering starting from the beginning of genome, accession number KM204118). The qPCR FAM probe sequence is 5’-[…]-3’. Serial 10-fold dilutions of plasmid containing the NS5 gene of DENV were used to generate a standard curve for the quantification of viral RNA genome copy number based on cycle threshold (CT) values. The limit of detection for NS5 plasmid dilutions was 30 copies (S1 Fig). […] Statistical analysis via GraphPad Prism 5 software. To obtain sequence data from viral RNA isolated at each passage, cDNA was generated via M-MLV reverse transcriptase and random hexamers (New England Biolab Inc.) per manufacturer’s instructions. An approximately 1600-base fragment covering membrane protein (prM) and envelop protein gene (E) of DENV-2 viral genome was amplified using PfuUltra II Fusion HS DNA polymerase (Agilent) with primers prMEfor (5'- […]-3') and prMErev (5'- […] -3'). PCR products were purified using Qiaquick PCR purification kit (Qiagen) and then digested with EcoRI and ligated into pcDNA3.1 for sequencing. Sequence for approximately 40–50 individual clones per sample was obtained from the University of Minnesota Genomics Center. Sequences were aligned over a 980-base region that had adequate quality sequencing reads for all clones. Only mutations present in both the forward and reverse reads of a clone were counted. All incidence-based determinants of mutation frequency (Mf min, Mf max, Mfe) were calculated as described.
Virus was passaged on Huh-7 cells supplemented with 200 μM 3a, 500 μM 3b or DMSO (0.5%). Huh-7 cells were seeded in 12-well plates and inoculated with DENV-2 as described for Titer reduction experiments above except an m.o.i. of 0.01 was used. After 3 days of compound treatment, 50 μL of the harvested supernatant was used to inoculate fresh Huh-7 cells in the continued presence of compound. The virus titer in the harvested supernatant was determined by plating ten-fold serial dilutions onto single wells of a 24-well plate. The wells were washed and overlaid as described in the Titer reduction assay above. If no plaques were obtained in any of the harvested supernatant dilutions, the undiluted supernatant was used. If plaques were not detectable, the virus titer was considered to be at the limit of detection, 1 plaque (3.3 pfu/mL). Supernatant titer was determined from a single well where there were approximately 20–50 plaques when possible. This experiment was repeated three times at the compound concentrations listed.

DENV-2 [3] = assay: Virus passage in presence of compound, supernatant titer by plaque assay; assay type: cell-based, DENV-2 New Guinea C strain; conditions: 3b 500 μM, Huh-7, passages 4 and 5; limit of detection 3.3 pfu/mL
Experimental: as §1, with “After 5 days of incubation at 37°C and 5% CO2, cells were washed with PBS, fixed, and stained using 1% Giemsa.” left out, “The viral titer was presented as the mean of duplicate samples from a dilution yielding approximately 20–50 plaques per well.” left out
(§2) Virus was passaged on Huh-7 cells supplemented with 200 μM 3a, 500 μM 3b or DMSO (0.5%). […] The virus titer in the harvested supernatant was determined by plating ten-fold serial dilutions onto single wells of a 24-well plate. […] Supernatant titer was determined from a single well where there were approximately 20–50 plaques when possible. […]

[4] = Cell viability assay (MTS) in Huh-7 cells; assay type: cell-based; conditions: human
Experimental: The sensitivity of the cell lines to the compounds was examined using the 3-(4,5-dimethylthiazol-2-yl)-5-(3-carboxymethoxyphenyl)-2-(4-sulfophenyl)-2H-tetrazolium (MTS)-based tetrazolium reduction CellTiter 96 Aqueous Non-Radioactive cell proliferation assay (Promega G5430). The compounds were initially tested at 10 and 50 μM final concentrations. Each plate also contained DMSO alone, medium alone, and an inhibitory compound, 6. DENV replicon or Huh-7 cells were plated at a density of 1,500 or 8 × 10^3 cells, respectively, per well in 96-well plates containing 100 μl of culture medium overnight. Compounds were added to triplicate wells in culture medium and incubated for an additional 72 h. MTS reagent was then added to each well and incubated at 37°C in a humidified 5% CO2 atmosphere. The plates were read at various time points at a wavelength of 490 nm using a Molecular Devices M5e plate reader. Mean values of triplicate wells were determined and compared to the mean value for the wells that received DMSO alone. For compounds selected for dose-response experiments, the CC50 was determined by comparing cell viability for eight serial dilutions of the compound and DMSO treated cells using GraphPad Prism software.

DENV-2 [5] = assay: Virus passage in presence of compound, genome copy number by RT-qPCR (NS5); assay type: cell-based, DENV-2 New Guinea C strain; conditions: 3b 500 μM, Huh-7, passage 5; limit of detection 30 copies
Experimental: For qPCR determination of viral genome copy number, viral RNA was isolated from 140 μL of drug-treated or DMSO-treated infected culture supernatant using QIAamp Viral RNA mini kit (Qiagen), following manufacturer’s protocol. Viral RNA was quantified using the TaqMan RNA-to-CT 1-Step qPCR Kit (Applied Biosystems). Primers used for qPCR were 5’-[…]-3’ (forward) and 5’-[…]-3’ (reverse) amplifying a region numbering 8928–8988 in the genome (numbering starting from the beginning of genome, accession number KM204118). The qPCR FAM probe sequence is 5’-[…]-3’. Serial 10-fold dilutions of plasmid containing the NS5 gene of DENV were used to generate a standard curve for the quantification of viral RNA genome copy number based on cycle threshold (CT) values. […] Sequences were aligned over a 980-base region that had adequate quality sequencing reads for all clones. Only mutations present in both the forward and reverse reads of a clone were counted. All incidence-based determinants of mutation frequency (Mf min, Mf max, Mfe) were calculated as described.
as §2

[6] = Cell viability assay (MTS) in DENV replicon cells; assay type: cell-based, baby hamster; conditions: hamster, DENV replicon cells (BHK pD2-hRucPac-2ATG30), DENV replicon BHK cells, MTS, 72 h
[7] = tested on: DENV replicon cells (BHK pD2-hRucPac-2ATG30); assay: Cell viability assay (MTS) in DENV replicon cells; assay type: cell-based, baby hamster
DENV-2 viral replicon = assay: microbe, parasite or virus in culture; assay type: cell-based; conditions: Dengue virus, DENV2, BHK, 72 h
Experimental: Compounds were evaluated for antiviral properties using BHK cells containing a DENV-2 viral replicon. 1.5 × 10^3 replicon-containing cells per well were plated in white opaque 96-well plates in the absence of antibiotic selection and the next day, compounds dissolved in DMSO were added to triplicate wells in culture medium. The compounds were initially tested at 10 and 50 μM final concentrations and each plate also contained DMSO alone, medium alone, and 6. Three days later, medium was replaced with a 1:1000 dilution of ViVi-Ren Live Cell Substrate (Promega) in DME minus phenol red and 10% FBS. Luminescence was measured with a Molecular Devices M5e plate reader. Mean values of triplicate wells were determined and compared to the mean value for the wells that received DMSO alone. […] The EC50 was determined by comparing luciferase activity for eight serial dilutions of the compound and DMSO treated cells using GraphPad Prism software.

[8] = passage 2, 3a 200 μM, 3b 500 μM, Huh-7
[9] = passage 3, 3a 200 μM, 3b 500 μM, Huh-7

NC(=O)c1nccn([C@@H]2O[C@H](CO)[C@@H](O)[C@H]2O)c1=O [Compound 3b]
EC50 (DENV-2 [1]): 60 ± 22 µM | number of mutations per clone compared to DMSO (DENV-2 [2]; 3a 200 μM passage 4, 3b 500 μM passage 3, p < 0.0001, Mann-Whitney U): significant difference | Mf max (maximum mutation frequency) (DENV-2 [2]; [8]): 15.3 per 10,000 nucleotides | Mf min (minimum mutation frequency) (DENV-2 [2]; [8]): 10.7 per 10,000 nucleotides | Mfe (entity level mutation frequency) (DENV-2 [2]; [8]): 2.4 ×10^−3 | Number of clones with mutation/total (DENV-2 [2]; [8]): 22/34 | Number of different mutations (DENV-2 [2]; [8]): 33 | Number of haplotypes (DENV-2 [2]; [8]): 22 | Number of total mutations (DENV-2 [2]; [8]): 47 | Transition A→G, number of mutations (DENV-2 [2]; [8]): 6 | Transition C→U, number of mutations (DENV-2 [2]; [8]): 4 | Transition G→A, number of mutations (DENV-2 [2]; [8]): 6 | Transition U→C, number of mutations (DENV-2 [2]; [8]): 14 | Transversion G→U, number of mutations (DENV-2 [2]; [8]): 2 | Transversion U→G, number of mutations (DENV-2 [2]; [8]): 1 | Mf max (maximum mutation frequency) (DENV-2 [2]; [9]): 15.8 per 10,000 nucleotides | Mf min (minimum mutation frequency) (DENV-2 [2]; [9]): 4.7 per 10,000 nucleotides | Mfe (entity level mutation frequency) (DENV-2 [2]; [9]): 2.2 ×10^−3 | Number of clones with mutation/total (DENV-2 [2]; [9]): 22/35 | Number of different mutations (DENV-2 [2]; [9]): 15 | Number of haplotypes (DENV-2 [2]; [9]): 17 | Number of total mutations (DENV-2 [2]; [9]): 50 | Transition A→G, number of mutations (DENV-2 [2]; [9]): 4 | Transition C→U, number of mutations (DENV-2 [2]; [9]): 6 | Transition G→A, number of mutations (DENV-2 [2]; [9]): 1 | Transition U→C, number of mutations (DENV-2 [2]; [9]): 3 | Transversion U→A, number of mutations (DENV-2 [2]; [9]): 1 | infectious virus in supernatant (DENV-2 [3]): undetectable | CC50 at 72 h [4]: > 1000 µM | genomic RNA in supernatant (DENV-2 [5]): undetectable | CC50 at 72 h [6]: > 1000 µM

Nc1nc(N)c2[nH]cnc2n1 [Compound 4a, 2,6-diaminopurine]
CC50 at 72 h [6]: 13 ± 2.1 µM

Nc1nc(N)c2ncn([C@@H]3O[C@H](CO)[C@@H](O)[C@H]3O)c2n1 [Compound 4b, 2-Aminoadenosine]
CC50 at 72 h [6]: 31 ± 1.4 µM | toxicity, in words ([7]; DENV replicon cells): too toxic

NC(=O)c1nc(F)c[nH]c1=O [Compound 5a, 6-fluoro-3-hydroxypyrazine-2-carboxamide, reference compound]
EC50 (DENV-2 viral replicon): 110 ± 30 µM | CC50 at 72 h [6]: > 1000 µM | CC50 ([7]; DENV replicon BHK cells, MTS, 72 h): > 665 µM

COc1c(C)c2c(c(O)c1C/C=C(\C)CCC(=O)O)C(=O)OC2 [Compound 6, mycophenolic acid, reference compound]
EC50 (DENV-2 viral replicon): 0.3 ± 0.03 µM | CC50 at 72 h [6]: 1.4 ± 0.4 µM
